IC50 data for one compound are collected here from BindingDB's records for patent US11306081 (Bristol Myers Squibb, 2022).

The target in this test is Rho-associated protein kinase 2 (Homo sapiens, UniProt O75116). Description: In Vitro Assay. The protocol: The effectiveness of compounds of the present invention as ROCK inhibitors can be determined in a 30 μL assay containing 20 mM HEPES, pH 7.5, 20 mM MgCl2, 0.015% Brij-35, 4 mM DTT, 5 μM ATP and 1.5 μM peptide substrate (FITC-AHA-AKRRRLSSLRA-OH) (SEQ ID No. 1). Compounds were dissolved in DMSO so that the final concentration of DMSO was <2%, and the reaction was initiated with Rho kinase variants. After incubation, the reaction was terminated by the addition of EDTA and the phosphorylated and non-phosphorylated peptides separated using a LABCHIP 3000 Reader (Caliper Life Sciences). […] Compounds were tested in dose-response format, and the inhibition of kinase activity was calculated at each concentration of compound. The inhibition data were fit using a curve-fitting program to determine the IC50; i.e., the concentration of compound required to inhibit 50% of kinase activity.
Rho-associated protein kinase 2, sequence (O75116 whole entry): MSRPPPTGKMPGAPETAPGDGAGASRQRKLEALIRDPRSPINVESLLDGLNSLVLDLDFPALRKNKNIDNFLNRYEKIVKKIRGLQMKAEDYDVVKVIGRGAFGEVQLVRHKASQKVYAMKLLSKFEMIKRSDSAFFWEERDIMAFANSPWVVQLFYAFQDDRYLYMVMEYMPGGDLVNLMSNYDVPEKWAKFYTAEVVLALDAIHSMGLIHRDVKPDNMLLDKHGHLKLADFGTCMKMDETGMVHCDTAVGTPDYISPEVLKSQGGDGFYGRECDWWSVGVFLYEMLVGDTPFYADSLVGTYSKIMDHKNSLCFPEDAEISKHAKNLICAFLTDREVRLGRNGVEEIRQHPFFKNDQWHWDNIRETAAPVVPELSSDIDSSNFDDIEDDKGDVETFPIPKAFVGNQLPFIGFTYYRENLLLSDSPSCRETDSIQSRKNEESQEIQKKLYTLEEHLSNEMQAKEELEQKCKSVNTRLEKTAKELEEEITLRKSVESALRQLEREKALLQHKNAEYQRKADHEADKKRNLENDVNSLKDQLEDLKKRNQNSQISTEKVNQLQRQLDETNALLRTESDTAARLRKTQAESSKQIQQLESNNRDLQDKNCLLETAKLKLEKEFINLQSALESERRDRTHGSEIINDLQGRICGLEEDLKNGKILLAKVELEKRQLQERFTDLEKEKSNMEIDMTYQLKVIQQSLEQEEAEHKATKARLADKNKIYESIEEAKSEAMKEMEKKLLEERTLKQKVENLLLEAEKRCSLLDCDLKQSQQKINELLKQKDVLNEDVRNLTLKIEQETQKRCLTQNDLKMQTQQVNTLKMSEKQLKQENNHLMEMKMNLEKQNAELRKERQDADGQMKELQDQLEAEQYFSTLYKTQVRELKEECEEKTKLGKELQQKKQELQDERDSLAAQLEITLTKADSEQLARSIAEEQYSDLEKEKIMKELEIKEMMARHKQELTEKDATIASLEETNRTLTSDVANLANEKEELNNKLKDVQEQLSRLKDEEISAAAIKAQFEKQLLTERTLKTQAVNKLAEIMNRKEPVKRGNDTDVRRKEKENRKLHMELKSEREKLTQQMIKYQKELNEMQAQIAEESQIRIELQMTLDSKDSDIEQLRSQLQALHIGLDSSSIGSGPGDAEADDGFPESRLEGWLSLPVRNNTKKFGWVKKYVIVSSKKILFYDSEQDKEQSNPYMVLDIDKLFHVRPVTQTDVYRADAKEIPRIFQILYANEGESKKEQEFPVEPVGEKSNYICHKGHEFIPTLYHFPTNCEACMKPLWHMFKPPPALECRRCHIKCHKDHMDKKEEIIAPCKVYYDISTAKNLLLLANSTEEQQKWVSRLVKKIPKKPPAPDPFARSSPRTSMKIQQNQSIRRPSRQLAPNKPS

Take `COc1ccc2sc(NC(=O)Cc3ccc(Oc4ncccc4C(N)=O)c(Cl)c3)nc2c1` [US11306081, Example 115]: the IC50 was 8 nM.
